The target in this assay is T1, human H-PGDS (Homo sapiens, UniProt O60760).
T1 construct: Full length human H-PGDS cDNA (Invitrogen Ultimate ORF IOH13026) was amplified by PCR; 6-His (N); TEV protease cleavage site (N); made in house; host or cells: E. coli BL21 (DE3*) for H-PGDS; Sf9 insect cells (baculovirus) for COX-2
Put plainly: H-PGDS RapidFire high throughput mass spectrometry assay. The class given is biochemical. The note with it: inhibition of conversion of PGH2 to PGD2 by H-PGDS; mean pIC50; read-out: Potency Range (mean pIC50) (converted). In outline:
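Full-length His-tagged human H-PGDS from E. coli converted PGH2, generated in situ (~10 μM burst) from arachidonic acid by FLAG-tagged human COX-2 (Sf9-expressed). PGD2 and PGF2α (substrate surrogate) were measured by RapidFire SPE-triple quadrupole MS. Percent conversion was calculated, and inhibition was taken as reduced conversion.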

Molecules are shown by their SMILES.

T1 sequence (O60760 whole entry): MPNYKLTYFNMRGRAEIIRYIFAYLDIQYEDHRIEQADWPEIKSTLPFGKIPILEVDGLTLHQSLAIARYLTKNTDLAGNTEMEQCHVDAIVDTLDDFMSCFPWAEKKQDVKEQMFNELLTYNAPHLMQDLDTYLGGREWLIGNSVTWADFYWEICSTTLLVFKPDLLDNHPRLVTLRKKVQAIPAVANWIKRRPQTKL

As to `CC1(C)C[C@H](NC(=O)c2cnc(-c3cc(F)cc(Cl)c3)s2)C(=O)N1` (single isomer, unassigned) [Example 16], the IC50 was 10.2 to 100 nM.
